The structures appear in SMILES notation.

In one experiment the test system is platelet aggregation. The note with it: cited from earlier work.
In the next experiment the test system is MCF7-LTED cells. Kind of experiment: MTT cell viability assay. It counts as cell-based. How it is done:
(§1) MCF7-LTED cells were established in phenol red-free Roswell Park Memorial Institute medium containing 10% dextran-coated charcoal-stripped fetal bovine serum. Cellular viability was evaluated using a standard methylthiazol tetrazolium (MTT; Sigma-Aldrich) assay. The results of these assays are expressed relative to vehicle treated controls and to the original time point.
MCF7 and MCF7-LTED cells were plated in 384-well microtiter plates and five compound dilutions (1 nM to 10 µM final concentration) from the LOPAC library (1,258 compounds, Sigma-Aldrich) were added to the cultures. Cell viability was assessed after 72 hours using MTT-based assays and the EnVision spectrofluorometer (Perkin-Elmer). The screen was performed in triplicate. The quality of the screen (Z'-factor > 0.5 for all screens) and the data was analyzed using the cell HTS2 module in the ScreenSaver database. The data was normalized between 0 and 1 using positive (1 µM phenylarsene oxide, Sigma-Aldrich) and negative (0.1% dimethyl sulfoxide, Merck) controls for cell viability. For hit selection, the difference between the normalize percentage inhibition (NPI) in MCF7 and MCF7-LTED cells was calculated by subtraction [ΔNPI = NPI(MCF7-LTED) - NPI(MCF7)] and the differentials were clustered with the MeV software package using the Cluster Affinity Search method with the Euclidean distance metric (threshold of 0.7).
Acquired resistance to aromatase inhibitors in postmenopausal women can be modeled in long-term estrogen-deprived (LTED) MCF7 cells. Using this model, a cell-based chemical compound screen was carried out to identify potential therapeutic strategies that could prevent and/or overcome resistance. More than 1,200 compounds were assessed for their differential effect on the viability (as defined by MTT-based assays) of MCF7-LTED cells relative to the parental MCF7 cells.
Having identified the comparative inhibitory effect of YC-1 on the viability of MCF7-LTED cells, we evaluated the effect of this compound on a collection of breast cancer cell lines. […]
(In general: Tetrazolium dyes change colour on reduction, which living cells bring about.)

The test system of experiment [1] is phenylephrine-induced contractions of rabbit aorta. Conditions: cited from earlier work.
Experiment [2] has as its system phospho-serine 235/236 ribosomal S6 protein. Kind of experiment: Phospho-S6 after YC-1 exposure of MCF7 cells. Conditions: MCF7 cells exposed to YC-1. It is filed as cell-based. The source says: (§2) To determine the YC-1 mechanism of action that may be selective in models of acquired resistance, the subcellular localization of ERα was first examined. Although ERα levels and localization were altered by YC-1 treatment, no substantial differences were observed between MCF7-LTED and MCF7 cells. Subsequently, whole-genome expression data was obtained and analyzed for the basal and YC-1-exposed conditions in both cell lines. Consistent with the results described above, expression of the ribosome pathway clearly distinguished MCF7-LTED and MCF7 cells in basal conditions. […] In contrast, exposure of MCF7-LTED cells to YC-1 led to alteration of the cell cycle pathway and a decrease in a central positive regulator of the cell cycle, E2F1.

A further experiment deals with E2F1. Kind of experiment: E2F1 after YC-1 exposure of MCF7-LTED cells. Conditions: MCF7-LTED cells exposed to YC-1. It is filed as cell-based.
Excerpt: as §2

Another experiment concerns MCF7 cells. Briefly: MTT cell viability assay. It counts as cell-based. The note with it: Homo sapiens, MCF7 cell line. Here is the method: as §1
[…] Cell viability was assessed after 72 hours using MTT-based assays and the EnVision spectrofluorometer (Perkin-Elmer). The screen was performed in triplicate. The quality of the screen (Z'-factor > 0.5 for all screens) and the data was analyzed using the cell HTS2 module in the ScreenSaver database. […] For hit selection, the difference between the normalize percentage inhibition (NPI) in MCF7 and MCF7-LTED cells was calculated by subtraction [ΔNPI = NPI(MCF7-LTED) - NPI(MCF7)] and the differentials were clustered with the MeV software package using the Cluster Affinity Search method with the Euclidean distance metric (threshold of 0.7).
Acquired resistance to aromatase inhibitors in postmenopausal women can be modeled in long-term estrogen-deprived (LTED) MCF7 cells. […] More than 1,200 compounds were assessed for their differential effect on the viability (as defined by MTT-based assays) of MCF7-LTED cells relative to the parental MCF7 cells. […]

The test system of a further experiment is MCF10A. Briefly: MTT cell viability assay. It counts as cell-based. The note with it: Homo sapiens, MCF-10A, MCF10A cell line. How it is done: as §1
(§3) Having identified the comparative inhibitory effect of YC-1 on the viability of MCF7-LTED cells, we evaluated the effect of this compound on a collection of breast cancer cell lines. […] For the remaining sensitive cell lines (as defined by an IC50 < 10 µM threshold), no associations with ERα and/or progesterone receptor (PR) and/or human epidermal growth factor receptor 2 (HER2) were observed (Table 1). Table 1. YC-1 IC50 (µM) values in breast cancer cell lines

In the next experiment the test system is BT474. Briefly: MTT cell viability assay. It is filed as cell-based. The note with it: Homo sapiens, BT-474, BT474 cell line. How it is done: as §1, §3
A further experiment has as its system AU565. Briefly: MTT cell viability assay. The note with it: Homo sapiens, AU565 cell line. It counts as cell-based. Here is the method:
as §1, §3

The subject of the next experiment is MDA-MB-453. Briefly: MTT cell viability assay. It is filed as cell-based. Conditions: Homo sapiens, MDA-MB-453 cell line. Here is the method: as §1, §3
A further experiment has as its system T47D. Kind of experiment: MTT cell viability assay. It counts as cell-based. The note with it: Homo sapiens, T47D cell line. Here is the method: as §1, §3
In another experiment the test system is MDA-MB-468. Briefly: MTT cell viability assay. It counts as cell-based. Conditions: Homo sapiens, MDA-MB-468 cell line. How it is done: as §1, §3
The subject of another experiment is HCC1937. Briefly: MTT cell viability assay. Conditions: Homo sapiens, HCC1937 cell line. It is filed as cell-based. How it is done:
as §1, §3

A further experiment concerns MDA-MB-231. Briefly: MTT cell viability assay. It is filed as cell-based. Conditions: Homo sapiens, MDA-MB-231 cell line. How it is done: as §1, §3
For another experiment, the system named is SKBR3. Kind of experiment: MTT cell viability assay. It counts as cell-based. The note with it: Homo sapiens, SK-BR-3, SKBR3 cell line. How it is done: as §1, §3
The subject of a further experiment is MCF7-HER2. Briefly: MTT cell viability assay. It is filed as cell-based. Conditions: MCF7-HER2 cell line. Here is the method: as §1, §3
The next experiment relates to ZR751. Kind of experiment: MTT cell viability assay. It counts as cell-based. Conditions: Homo sapiens, ZR-75-1, ZR751 cell line. How it is done: as §1, §3
The subject of a further experiment is ERα. Kind of experiment: Subcellular localization of ERα after YC-1 treatment. It is filed as cell-based. Conditions: MCF7-LTED and MCF7 cells; no substantial differences between the two.
Excerpt: as §2

On to `Nc1nc(-c2nn(Cc3ccccc3F)c3ncccc23)ncc1C1CC1` [BAY 41-2272], for which the IC50 (in general, the concentration that inhibits the measured activity by half) is 0.036 µM in the experiment on platelet aggregation and 0.3 µM in experiment [1]. Also, in the experiment with MCF7-LTED cells (MCF7-LTED versus MCF7 cells, validation, Fig. 1C), the “differences in cell viability” value is recorded as “differences in cell viability, although of lesser magnitude”.

Turning to `COc1cc2ncnc(Nc3ccc(F)c(Cl)c3)c2cc1OCCCN1CCOCC1` [Gefitinib, reference compound], in the experiment on MCF7-LTED cells (MCF7-LTED versus MCF7 cells, Fig. 1D), the “differences in the growth rate of the two cellular models” value is on record as “No differences”.

Turning to `OCc1ccc(-c2nn(Cc3ccccc3)c3ccccc23)o1` [YC-1, 3-(5'-hydroxymethyl-2'-furyl)-1-benzylindazole], the “phospho-serine 235/236 ribosomal S6 protein” value in [2] is recorded as “decrease”. Further, the IC50 in the experiment with MCF7-LTED cells (MCF7-LTED cell line (long-term estrogen-deprived), cell viability) turned out to be 4.9 µM; in the experiment on MCF7 cells it was 131 µM; with MCF10A, 99 µM; with BT474, 319 µM; in the experiment on AU565 it was 1.3 µM; with MDA-MB-453, 250 µM. In addition, the IC50 in the experiment with T47D worked out at 8.2 µM; in the experiment on MDA-MB-468, 49 µM; in the experiment on HCC1937, 253 µM; with MDA-MB-231 it was 4480 µM; in the experiment with SKBR3 it was 1.6 µM; in the experiment with MCF7-HER2 it was 187 µM. This compound gave an IC50 in the experiment with ZR751 of 0.3 µM. The E2F1 entry with E2F1 was “decrease”. In addition, the “ERα levels and localization” value with ERα is “altered”.

Source of the values: patent EP2821071A1, “Compounds for breast cancer treatment” (Institut d'Investigació Biomèdica de Bellvitge (IDIBELL), priority 2013, dated 2015).
